Consider four compounds from ChEMBL document CHEMBL4742399, “New compounds for use as a therapeutically active substance and in particular for use in the treatment of tumors” (2019).

Usually IC50 stands for the concentration that inhibits the measured activity by half.

Active and inactive are the calls of the source. The rule behind the calls is not given here.

Assay [1] has as its target T1, Dual specificity tyrosine-phosphorylation-regulated kinase 1B (Homo sapiens, UniProt Q9Y463). Put plainly: Inhibition of GST-tagged DYRK1B (unknown origin) incubated for 30 mins using DYRKtide by ADP-Glo assay.
Target sequence in this assay (Q9Y463 whole entry): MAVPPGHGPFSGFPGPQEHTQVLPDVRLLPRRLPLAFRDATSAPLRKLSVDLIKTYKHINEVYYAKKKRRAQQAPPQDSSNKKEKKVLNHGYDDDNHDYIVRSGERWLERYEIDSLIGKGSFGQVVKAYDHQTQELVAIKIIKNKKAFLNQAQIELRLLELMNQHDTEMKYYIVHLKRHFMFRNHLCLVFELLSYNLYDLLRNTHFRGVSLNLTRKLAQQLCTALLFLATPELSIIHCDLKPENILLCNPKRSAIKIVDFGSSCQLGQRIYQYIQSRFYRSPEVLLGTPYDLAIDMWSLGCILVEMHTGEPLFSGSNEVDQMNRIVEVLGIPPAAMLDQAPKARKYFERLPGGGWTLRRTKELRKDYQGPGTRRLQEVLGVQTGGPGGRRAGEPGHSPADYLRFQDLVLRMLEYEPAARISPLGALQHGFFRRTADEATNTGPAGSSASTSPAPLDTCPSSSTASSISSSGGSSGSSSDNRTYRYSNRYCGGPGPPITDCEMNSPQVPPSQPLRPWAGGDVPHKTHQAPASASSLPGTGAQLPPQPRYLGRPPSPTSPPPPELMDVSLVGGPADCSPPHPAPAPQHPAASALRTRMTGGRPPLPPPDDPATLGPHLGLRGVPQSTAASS
Assay [2] deals with HT-29. Put plainly: Cytotoxicity against human HT-29 multicellular tumor spheroid cells at 5 uM incubated for 48 hrs by Hoechst and SYTOX staining based assay. In kind it is functional, cell-based.
The target of assay [3] is T1, Dual specificity tyrosine-phosphorylation-regulated kinase 1B. Kind of assay: Inhibition of GST-tagged DYRK1B (unknown origin) assessed as reduction p27 Ser10 phosphorylation at 0.1 to 10 uM. As to conditions: dose 0.1-10 µM.
Target sequence in this assay (Q9Y463 whole entry, looked up): as the sequence (Q9Y463 whole entry) above
Assay [4] relates to HT-29. Kind of assay: Cytotoxicity against human HT-29 multicellular tumor spheroid cells at 0.15 to 20 uM incubated for 48 hrs by Hoechst and SYTOX staining based assay. As to conditions: dose 0.15-20 µM. In kind it is functional, cell-based.
In assay [5] the target is T1, Dual specificity tyrosine-phosphorylation-regulated kinase 1B. Kind of assay: Inhibition of DYRK1B un human HT-29 cells assessed as reduction p27 Ser10 phosphorylation at 2.5 to 10 uM. The class given is cell-based. The conditions noted are these: dose 2.5-10 µM.
Target sequence in this assay (Q9Y463 whole entry, looked up): as the sequence (Q9Y463 whole entry) above
For assay [6], the system named is HT-29. Kind of assay: Cytotoxicity against human HT-29 multicellular tumor spheroid cells at 5 uM incubated for 48 hrs under hypoxic conditions by Hoechst and SYTOX staining based assay. The class given is functional, cell-based.

With `COc1ccccc1-n1cc(-c2ccnc(NCc3c(C)n[nH]c3C)n2)cn1`, the half-maximal inhibitory concentration (IC50) in assay [1] worked out at 3000 nM.
In assay [1], `CCNc1nccc(-c2cnn(-c3ccccc3F)c2)n1` gave an IC50 of 3000 nM.
`Fc1ccccc1-n1cc(-c2ccnc(NC3CCOCC3)n2)cn1` yielded a half-maximal inhibitory concentration (IC50) in assay [1] of 2000 nM.
In the case of `Fc1ccccc1-n1cc(-c2ccnc(NCc3ccncc3)n2)cn1`, the result in assay [2], in assay [4] and in assay [6] was Active. Further, the inhibition entry in assay [3] and in assay [5] was “Active” each time. This compound also came in with an IC50 in assay [1] of 4000 nM.
